Like-named read-outs stand apart in the source and are kept apart here.
Experiments:
[1] = test system: ACP; conditions: small plot field trial, cited from earlier work
[2] = test system: neuron 2A (rhinarial plate on flagellomere 2); experiment: single-sensillum electrophysiology, odor response of neuron 2A; assay type: cell-based, Diaphorina citri; conditions: for odor response (frequency of action potentials during stimulus minus baseline), 2A: Table 1, odor diluted to 1%, 50 μL in cartridge; for all read-outs here: key: 0, no response; +, >50 spikes/second; ++, >100 spikes/second; +++, >150 spikes/second
[3] = test system: neuron 2B (rhinarial plate on flagellomere 2); experiment: single-sensillum electrophysiology, odor response of neuron 2B; assay type: cell-based, Diaphorina citri; conditions: for odor response (frequency of action potentials during stimulus minus baseline), 2B: Table 1, odor diluted to 1%, 50 μL in cartridge; for response to ultra-prolonged activators, 2B: key: 0, no response; +, >50 spikes/second; ++, >100 spikes/second; +++, >150 spikes/second
[4] = test system: neuron 2C (rhinarial plate on flagellomere 2); experiment: single-sensillum electrophysiology, odor response of neuron 2C; assay type: cell-based, Diaphorina citri; conditions: for odor response (frequency of action potentials during stimulus minus baseline), 2C: Table 1, odor diluted to 1%, 50 μL in cartridge; for response to ultra-prolonged activators, 2C: key: 0, no response; +, >50 spikes/second; ++, >100 spikes/second; +++, >150 spikes/second
[5] = test system: neuron 4A (rhinarial plate on flagellomere 4); experiment: single-sensillum electrophysiology, odor response of neuron 4A; assay type: cell-based, Diaphorina citri; conditions: for odor response (frequency of action potentials during stimulus minus baseline), 4A: Table 1, odor diluted to 1%, 50 μL in cartridge
[6] = test system: neuron 4B (rhinarial plate on flagellomere 4); assay type: cell-based, Diaphorina citri
[7] = test system: neuron 4C (rhinarial plate on flagellomere 4); experiment: single-sensillum electrophysiology, odor response of neuron 4C; assay type: cell-based, Diaphorina citri; conditions: for odor response (frequency of action potentials during stimulus minus baseline), 4C: Table 1, odor diluted to 1%, 50 μL in cartridge
[8] = test system: neuron 6A (rhinarial plate on flagellomere 6); experiment: single-sensillum electrophysiology, odor response of neuron 6A; assay type: cell-based, Diaphorina citri; conditions: for odor response (frequency of action potentials during stimulus minus baseline), 6A: Table 1, odor diluted to 1%, 50 μL in cartridge
[9] = test system: neuron 6B (rhinarial plate on flagellomere 6); experiment: single-sensillum electrophysiology, odor response of neuron 6B; assay type: cell-based, Diaphorina citri; conditions: for odor response (frequency of action potentials during stimulus minus baseline), 6B: Table 1, odor diluted to 1%, 50 μL in cartridge
[10] = test system: neuron 6C (rhinarial plate on flagellomere 6); experiment: single-sensillum electrophysiology, odor response of neuron 6C; assay type: cell-based, Diaphorina citri; conditions: for odor response (frequency of action potentials during stimulus minus baseline), 6C: Table 1, odor diluted to 1%, 50 μL in cartridge
[11] = test system: neuron 7A (rhinarial plate on flagellomere 7); experiment: single-sensillum electrophysiology, odor response of neuron 7A; assay type: cell-based, Diaphorina citri; conditions: for odor response (frequency of action potentials during stimulus minus baseline), 7A: Table 1, odor diluted to 1%, 50 μL in cartridge; for all read-outs here: key: 0, no response; +, >50 spikes/second; ++, >100 spikes/second; +++, >150 spikes/second
[12] = test system: neuron 7B (rhinarial plate on flagellomere 7); assay type: cell-based, Diaphorina citri
[13] = test system: neuron 7C (rhinarial plate on flagellomere 7); experiment: single-sensillum electrophysiology, odor response of neuron 7C; assay type: cell-based, Diaphorina citri; conditions: for odor response (frequency of action potentials during stimulus minus baseline), 7C: Table 1, odor diluted to 1%, 50 μL in cartridge
[14] = test system: ACP; conditions: cited from earlier work
[15] = Table 3, 10^−2 in paraffin oil, 50 μL, odor puff of 0.5 sec
[16] = Table 1, odor diluted to 1%, 50 μL in cartridge

CSSC [DMDS, dimethyl disulfide]
65%: reduction in ACP densities ([1]; low psyllid density area (average 3-4 ACP/10 trees))
up to three: duration of reduction in ACP densities [1]

O [water]
0: odor response (frequency of action potentials during stimulus minus baseline), 2A [2] | odor response (frequency of action potentials during stimulus minus baseline), 2B [3] | odor response (frequency of action potentials during stimulus minus baseline), 2C [4] | odor response (frequency of action potentials during stimulus minus baseline), 4A [5] | odor response (frequency of action potentials during stimulus minus baseline), 4B [6] | odor response (frequency of action potentials during stimulus minus baseline), 6A [8] | odor response (frequency of action potentials during stimulus minus baseline), 6B [9] | odor response (frequency of action potentials during stimulus minus baseline), 7A [11] | odor response (frequency of action potentials during stimulus minus baseline), 7B [12] | odor response (frequency of action potentials during stimulus minus baseline), 7C [13]
+ (+, >50 spikes/second): odor response (frequency of action potentials during stimulus minus baseline), 4C [7] | odor response (frequency of action potentials during stimulus minus baseline), 6C [10]

CCCCCCCCC=O [nonanal]
0: odor response (frequency of action potentials during stimulus minus baseline), 2A [2] | response to ultra-prolonged activators, 2A [2, 15] | odor response (frequency of action potentials during stimulus minus baseline), 2B [3] | response to ultra-prolonged activators, 2B [3, 15] | odor response (frequency of action potentials during stimulus minus baseline), 2C [4] | response to ultra-prolonged activators, 2C [4, 15] | odor response (frequency of action potentials during stimulus minus baseline), 4A [5] | response to ultra-prolonged activators, 4A [5, 15] | odor response (frequency of action potentials during stimulus minus baseline), 4C [7] | response to ultra-prolonged activators, 4C [7, 15] | odor response (frequency of action potentials during stimulus minus baseline), 6A [8] | response to ultra-prolonged activators, 6A [8, 15] | odor response (frequency of action potentials during stimulus minus baseline), 6C [10] | response to ultra-prolonged activators, 6C [10, 15] | odor response (frequency of action potentials during stimulus minus baseline), 7A [11] | response to ultra-prolonged activators, 7A [11, 15] | odor response (frequency of action potentials during stimulus minus baseline), 7B [12, 16] | response to ultra-prolonged activators, 7B [12, 15]
++ (++, >100 spikes/second): odor response (frequency of action potentials during stimulus minus baseline), 4B [6, 16] | response to ultra-prolonged activators, 4B [6, 15] | odor response (frequency of action potentials during stimulus minus baseline), 6B [9] | response to ultra-prolonged activators, 6B [9, 15] | odor response (frequency of action potentials during stimulus minus baseline), 7C [13] | response to ultra-prolonged activators, 7C [13, 15]

CC/C=C\CC=O [Z3-hexenal]
0: odor response (frequency of action potentials during stimulus minus baseline), 2A [2] | odor response (frequency of action potentials during stimulus minus baseline), 2B [3] | odor response (frequency of action potentials during stimulus minus baseline), 2C [4] | odor response (frequency of action potentials during stimulus minus baseline), 4B [6, 16] | odor response (frequency of action potentials during stimulus minus baseline), 4C [7] | odor response (frequency of action potentials during stimulus minus baseline), 6B [9] | odor response (frequency of action potentials during stimulus minus baseline), 6C [10] | odor response (frequency of action potentials during stimulus minus baseline), 7A [11] | odor response (frequency of action potentials during stimulus minus baseline), 7C [13]
+ (+, >50 spikes/second): odor response (frequency of action potentials during stimulus minus baseline), 7B [12, 16]
++ (++, >100 spikes/second): odor response (frequency of action potentials during stimulus minus baseline), 4A [5] | odor response (frequency of action potentials during stimulus minus baseline), 6A [8]

C=C1CC/C=C(\C)CC[C@@H]2[C@@H]1CC2(C)C [β-caryophyllene]
++ (++, >100 spikes/second): odor response (frequency of action potentials during stimulus minus baseline), 2B [3]
+ (+, >50 spikes/second): odor response (frequency of action potentials during stimulus minus baseline), 7B [12, 16]
0: odor response (frequency of action potentials during stimulus minus baseline), 2A [2] | odor response (frequency of action potentials during stimulus minus baseline), 2C [4] | odor response (frequency of action potentials during stimulus minus baseline), 4A [5] | odor response (frequency of action potentials during stimulus minus baseline), 4B [6, 16] | odor response (frequency of action potentials during stimulus minus baseline), 4C [7] | odor response (frequency of action potentials during stimulus minus baseline), 6A [8] | odor response (frequency of action potentials during stimulus minus baseline), 6B [9] | odor response (frequency of action potentials during stimulus minus baseline), 6C [10] | odor response (frequency of action potentials during stimulus minus baseline), 7A [11] | odor response (frequency of action potentials during stimulus minus baseline), 7C [13]

COC(=O)c1ccccc1O [methyl salicylate]
attracted: ACP behavior in lab behavior assays ([14]; at lower concentration)
repellency: ACP behavior in laboratory behavioral assays ([14]; high amounts, as released by citrus plants under physical stress)
+ (+, >50 spikes/second): odor response (frequency of action potentials during stimulus minus baseline), 4B [6, 16] | odor response (frequency of action potentials during stimulus minus baseline), 6B [9] | odor response (frequency of action potentials during stimulus minus baseline), 7B [12, 16]
0: odor response (frequency of action potentials during stimulus minus baseline), 2A [2] | odor response (frequency of action potentials during stimulus minus baseline), 2B [3] | odor response (frequency of action potentials during stimulus minus baseline), 2C [4] | odor response (frequency of action potentials during stimulus minus baseline), 4A [5] | odor response (frequency of action potentials during stimulus minus baseline), 4C [7] | odor response (frequency of action potentials during stimulus minus baseline), 6A [8] | odor response (frequency of action potentials during stimulus minus baseline), 6C [10] | odor response (frequency of action potentials during stimulus minus baseline), 7A [11] | odor response (frequency of action potentials during stimulus minus baseline), 7C [13]

C=C(C)C1CC=C(C)CC1 (single isomer, unassigned; (+)) [(+)-limonene]
0: odor response (frequency of action potentials during stimulus minus baseline), 2A [2] | odor response (frequency of action potentials during stimulus minus baseline), 2B [3] | odor response (frequency of action potentials during stimulus minus baseline), 4A [5] | odor response (frequency of action potentials during stimulus minus baseline), 4C [7] | odor response (frequency of action potentials during stimulus minus baseline), 6A [8] | odor response (frequency of action potentials during stimulus minus baseline), 6C [10] | odor response (frequency of action potentials during stimulus minus baseline), 7A [11] | odor response (frequency of action potentials during stimulus minus baseline), 7B [12, 16] | odor response (frequency of action potentials during stimulus minus baseline), 7C [13]
+ (+, >50 spikes/second): odor response (frequency of action potentials during stimulus minus baseline), 2C [4] | odor response (frequency of action potentials during stimulus minus baseline), 4B [6, 16] | odor response (frequency of action potentials during stimulus minus baseline), 6B [9]

CC1=CCC2C(C1)C2(C)C (stereo not shown) [δ-3-carene]
++ (++, >100 spikes/second): odor response (frequency of action potentials during stimulus minus baseline), 4B [6, 16] | odor response (frequency of action potentials during stimulus minus baseline), 6B [9]
0: odor response (frequency of action potentials during stimulus minus baseline), 2A [2] | odor response (frequency of action potentials during stimulus minus baseline), 2B [3] | odor response (frequency of action potentials during stimulus minus baseline), 2C [4] | odor response (frequency of action potentials during stimulus minus baseline), 4A [5] | odor response (frequency of action potentials during stimulus minus baseline), 4C [7] | odor response (frequency of action potentials during stimulus minus baseline), 6A [8] | odor response (frequency of action potentials during stimulus minus baseline), 6C [10] | odor response (frequency of action potentials during stimulus minus baseline), 7A [11] | odor response (frequency of action potentials during stimulus minus baseline), 7B [12, 16] | odor response (frequency of action potentials during stimulus minus baseline), 7C [13]

Reference: US20180055032A1, “ODORS FOR PSYLLID TRAPPING, REPELLING AND CONTROL” (The Regents of the University of California, priority 2011, published 2018)
